Laboratory results from PMC9609871, “Binding and Kinetic Analysis of Human Protein Phosphatase PP2A Interactions with Caspase 9 Protein and the Interfering Peptide C9h” (Pharmaceutics, 2022).
Peptide text beside a SMILES is read from it. * marks the point of attachment. Biotin = O=C1N[C@H]2[C@H](CS[C@H]2CCCCC(=O)*)N1

What was measured:
PP2A [1] = biological target: T1, PP2A (Homo sapiens, UniProt P67775); test: ELISA: PP2A binding to immobilized biotinylated C9h peptides; conditions: OD 450 nm
T1 construct: purchased LSBio
Method: A total of 100 μL of biotinylated peptides diluted at 100 μM in PBS was incubated for 2 h at room temperature in a 96-well Streptavidine-coated plate (Pierce, Illkirch, Strasbourg, France). Wells were washed five times with PBS/0.05% Tween-20 (PBST) and filled with 100 μL of PP2A (Sigma) diluted in PBS/2.5% BSA (Sigma) at the indicated dilutions. The plate was incubated over night at 4 °C and washed five times with PBST. A total of 100 μL of rabbit polyclonal IgG anti-human PP2Aα (Santa Cruz Biotechnology, Heidelberg, Germany) was added at 5 μg/mL in PBS/BSA for 1 h at room temperature. Wells were washed 5 times with PBST and filled with 100 μL of HRP conjugated anti-rabbit IgG (Sigma) diluted at 1:20,000 in PBS/BSA for 1 h at room temperature. Wells were washed 5 times with PBST, and 100 μL of TMB substrate (Pierce) were added and incubated for 15–45 min. The reaction was stopped with 50 μL of 2 N sulphuric acid, and the absorbance was measured at 450 nm on a Multiskan EX plate reader (Thermo Scientific, Illkirch, Strasbourg, France). The Caspase 9 peptide C9h was labelled with biotin at the N-terminal and C-terminal end of the peptide.

PP2A [2] = biological target: T1, PP2A; test: BLI: PP2A binding to immobilized biotinylated C9h-Cter peptide (Streptavidin biosensor)
Method: Kinetic measurements of PP2A against biotinylated C9h-Cter peptide were run with Streptavidin biosensors (Fortebio, #18-5019). The initial step consisted of coating the biosensor with the peptide diluted in SD at 100 µM for 180 s in 4 µL (not shown) and was followed by three steps for the kinetic study: (i) initial baseline in 300 µL SD for 30 s was measured; (ii) association of PP2A at the indicated concentrations for 180 s in 4 µL was used; and (iii) dissociation step was then monitored in 300 µL SD for 150 s.
Experiments using empty immunosensors (no ligand loaded) were run as control. Sensorgrams were fit globally to a 1:1 binding model by BLItz Pro software, from which the association (kon) and dissociation (koff) rate constants and apparent affinities (KD) were calculated. X2 is the sum of squared deviations between the actual data point and the fitted curve. Values close to zero indicate a good curve fit. The R2 coefficient of determination is a statistical measure of how well the fitted curve approximate the real data points. Values of R2 near 1 indicate a near-perfect fit.

Caspase 9 = test: BLI: Caspase 9 analyte binding to immobilized PP2A (Protein A biosensor, anti-PP2A); design: species or system human; conditions: summary: close to, Caspase 9 analyte on immobilized PP2A; read-out: affinity, both models
Method: Kinetic analysis was performed based on biolayer interferometry (BLI) by using a BLItz instrument (ForteBio, Bayonne, France) at room temperature. Prior to use, each biosensor was hydrated in sample diluent (SD: PBS1X, pH 7.0, 0.02% Tween 20, 0.1% BSA) for at least 10 min. Kinetic measurements of PP2A/Caspase 9 interactions were run with Protein A biosensors (Fortebio) and consisted of seven steps, all performed in reaction buffer, as follows: (i) initial baseline in 300 µL SD for 30 s was measured; (ii) 4 µL of mouse anti-Caspase 9 or rabbit anti-PP2A were immobilized on the sensor for 150 s at 133 nM; (iii) the immunosensor was washed with 300 µL SD for 120 s; (iv) 4 µL of purified ligand Caspase 9 at 566 nM (Origen) or PP2A at 694 nM (LSBio) were loaded on the immunosensor for 150 s; (v) the ligand-coated immunosensor was washed with 300 µL SD for 120 s; (vi) association of purified analytes diluted in SD at the mentioned concentrations was studied for 150 s in 4 µL; and (vii) dissociation step was then monitored in 300 µL SD for 120 s.
Experiments using empty immunosensors (no ligand loaded) were run as control. Sensorgrams were fit globally to a 1:1 binding model by BLItz Pro software, from which the association (kon) and dissociation (koff) rate constants and apparent affinities (KD) were calculated. […]

T1 sequence (P67775 whole entry): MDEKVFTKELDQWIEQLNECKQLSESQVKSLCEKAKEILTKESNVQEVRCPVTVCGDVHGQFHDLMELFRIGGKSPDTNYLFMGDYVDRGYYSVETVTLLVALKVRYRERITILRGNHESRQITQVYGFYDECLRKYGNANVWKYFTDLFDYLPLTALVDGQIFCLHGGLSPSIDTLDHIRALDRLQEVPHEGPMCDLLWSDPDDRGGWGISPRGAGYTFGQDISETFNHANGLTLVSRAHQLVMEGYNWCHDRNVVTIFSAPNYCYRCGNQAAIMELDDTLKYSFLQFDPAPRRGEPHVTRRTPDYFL

Molecule | signal recognition compared with C9h-Nter (PP2A [1]; PP2A 0.6 μg/mL, duplicate wells) | binding of PP2A to biotinylated peptide (PP2A [1]; peptide 100 μM on streptavidin plate, PP2A 0.6 μg/mL overnight at 4 °C, mean of duplicate wells, representative of two independent experiments, irrelevant biotinylated peptide as negative control) | koff (PP2A [2]; biotinylated C9h-Cter coated at 100 µM, analyte PP2A 463, 556 and 694 nM, pH 7.0, room temperature, dissociation 150 s, global 1:1 fit) | dissociation rate of PP2A relative to that with immobilized Caspase 9 (PP2A [2]; immobilized C9h-Cter versus immobilized Caspase 9) | affinity for PP2A compared with whole protein Caspase 9 (PP2A [2]; qualitative comparison) | Kd (Caspase 9)
CC[C@H](C)[C@H](NC(=O)[C@H](CC(=O)O)NC(=O)[C@H](CC(=O)O)NC(=O)[C@H](CC(C)C)NC(=O)[C@@H](NC(=O)[C@H](CCC(=O)O)NC(=O)[C@@H](NC(=O)[C@@H](N)Cc1ccc(O)cc1)C(C)C)[C@@H](C)O)C(=O)N[C@@H](Cc1ccccc1)C(=O)N[C@@H](CCC(=O)O)C(=O)N[C@@H](CCC(N)=O)C(=O)N[C@@H](Cc1c[nH]c2ccccc12)C(=O)N[C@@H](C)C(=O)N[C@@H](Cc1c[nH]cn1)C(=O)N[C@@H](CO)C(=O)N[C@@H](CCC(=O)O)C(=O)N[C@@H](CC(=O)O)C(=O)N[C@@H](CC(C)C)C(=O)N[C@@H](CCCCNC(=O)CCCC[C@@H]1SC[C@@H]2NC(=O)N[C@@H]21)C(=O)O [C9h-Cter] (H-YVETLDDIFEQWAHSEDLK(Biotin)-OH; N-terminus and C-terminus assumed) | stronger signal recognition than that of C9h-Nter | bind to the PP2A protein in a specific manner | 0.0087 s⁻¹ | approximatively one log higher | slightly lower affinity | 
PP2A: protein phosphatase 2A (LSBio), serine/threonine phosphatase |  |  |  |  |  | ~100 nM
